The target in data set [1] is T1, PSMA on LNCaP cells (Homo sapiens, UniProt Q04609). The experiment in a line: cell-based.
Protocol: The PSMA expressing human prostate cancer cell line, LNCaP, was obtained from the American Type Culture Collection. […] LNCaP cells were maintained in RPMI-1640 medium supplemented with 10% fetal bovine serum (Hyclone), 4 mM L-glutamine, 1 mM sodium pyruvate, 10 mM N-2-hydroxyethylpiperazine-N-2-ethanesulfonic acid (HEPES), 2.5 mg/mL D-glucose, and 50 μg/mL gentamicin in a humidified incubator at 37° C./5% CO2. Cells were removed from flasks for passage or for transfer to 12-well assay plates by incubating them with 0.25% trypsin/ethylenediaminetetraacetic acid (EDTA).
Briefly, LNCaP cells were plated 72 h prior to the experiment to achieve a density of approximately 5×10^5 cells/well (in triplicate) in RPMI-1640 medium supplemented with 0.25% bovine serum albumin. The cells were incubated for 2 h with 1 nM ^99mTc-MIP-1427 in RPMI-1640 medium containing 0.00125% w/v bovine serum albumin [3] in the presence of 0.001-10,000 nM test compounds. Radioactive incubation media was then removed by pipette and the cells were washed twice using 1 mL ice-cold PBS 1× solution. Cells were harvested from the plates following treatment with 1 mL 1M NaOH and transferred to tubes for radioactive counting using a 2470 Wizard^2 Automatic Gamma Counter (Perkin Elmer). […] IC50 values were determined by fitting the data points to a sigmoidal Hills1 curve in Origin software.
Data set [2] concerns LNCaP xenograft tumor-bearing mice. In words: Biodistribution of 225Ac-macropa-RPS-070 in LNCaP xenograft mice. The conditions noted are these: 4-96 h; no accumulation in liver, spleen, bone. The format is in vivo. How it is done: Cell Culture. […] Cell culture supplies were from Invitrogen unless otherwise noted.
(§1) Inoculation of Mice with Xenografts. All animal studies were approved by the Institutional Animal Care and Use Committee of Weill Cornell Medicine and were undertaken in accordance with the guidelines set forth by the USPHS Policy on Humane Care and Use of Laboratory Animals. Animals were housed under standard conditions in approved facilities with 12 h light/dark cycles. Food and water was provided ad libitum throughout the course of the studies. Hairless male nu/nu mice were purchased from the Jackson Laboratory. For inoculation in mice, LNCaP cells were suspended at 4×10^7 cells/mL in a 1:1 mixture of PBS:Matrigel (BD Biosciences). Each mouse was injected in the left flank with 0.25 mL of the cell suspension. Biodistributions were conducted when tumors were in the range 100-400 mm^3.
Biodistribution of ^225Ac-macropa-RPS-070 in LNCaP xenograft mice. […] Tissues were weighed and counted on a 2470 Wizard Automatic Gamma Counter (Perkin Elmer). 1% ID/mL samples were counted prior to and following each set of tissue samples to enable decay correction to be undertaken. Counts were corrected for decay and for activity injected, and tissue uptake was expressed as percent injected dose per gram (% ID/g). Standard error measurement was calculated for each data point.

For data set [3] the test system is unchanged. In words: Biodistribution studies of 177Lu-labeled ligands in LNCaP xenograft mice. The format is in vivo. How it is done:
as §1, with “mice” for “Mice”, “xenografts:” for “Xenografts.”, “The mice were imaged when the tumors reached approximately 200-400 mm^3, while biodistributions” for “Biodistributions”
Biodistribution studies of ^177Lu-labeled ligands in LNCaP xenograft mice: LNCaP xenograft tumor-bearing mice (5 per time point per compound) were injected intravenously with a bolus injection of 348-851 kBq (9.4-23 μCi) and 37-50 ng (23-25 pmol) of each ligand. The mice were sacrificed at 4, 24 and 96 h post injection. A blood sample was removed, and a full biodistribution study was conducted on the following organs (with contents): heart, lungs, liver, small intestine, large intestine, stomach, spleen, pancreas, kidneys, muscle, bone and tumor. Tissues were weighed and counted on a 2470 Wizard^2 Automatic Gamma Counter (Perkin Elmer). Counts were corrected for decay and for activity injected, and tissue uptake was expressed as percent injected dose per gram (% ID/g). Standard error measurement was calculated for each data point.

For data set [4] the test system is unchanged. The experiment in a line: Dosimetry (dose integrals from 177Lu biodistribution). The data set is classed as in vivo. The conditions noted are these: over 96 h. How it is done:
Dosimetry: The dosimetry was calculated assuming a linear interpolation between the three time points. The average injected dose per organ was calculated by using the average of the activity and organ weights of the mice at that time point. Intermediate time points at every 4 hours were generated using the linear approximation and all time points were corrected for decay during the time interval between points. These curves were integrated using a trapezoidal approximation and the sum used to determine the residence time.

Data set [5] has as its target T1, PSMA on LNCaP cells. Also on record: host or cells: LNCaP. The conditions noted are these: binding to PSMA on LNCaP cells; cited from earlier work.

The values that follow come from patent US11285227B2, “Trifunctional constructs with tunablepharmacokinetics useful in imaging and anti-tumor therapies” (CORNELL UNIVERSITY, priority 2017, dated 2022).

As usually defined, the IC50 is the midpoint of a concentration-inhibition curve. A low value points to greater potency. One may read the Kd as a measure of binding affinity in units of concentration.

T1 sequence (Q04609 whole entry): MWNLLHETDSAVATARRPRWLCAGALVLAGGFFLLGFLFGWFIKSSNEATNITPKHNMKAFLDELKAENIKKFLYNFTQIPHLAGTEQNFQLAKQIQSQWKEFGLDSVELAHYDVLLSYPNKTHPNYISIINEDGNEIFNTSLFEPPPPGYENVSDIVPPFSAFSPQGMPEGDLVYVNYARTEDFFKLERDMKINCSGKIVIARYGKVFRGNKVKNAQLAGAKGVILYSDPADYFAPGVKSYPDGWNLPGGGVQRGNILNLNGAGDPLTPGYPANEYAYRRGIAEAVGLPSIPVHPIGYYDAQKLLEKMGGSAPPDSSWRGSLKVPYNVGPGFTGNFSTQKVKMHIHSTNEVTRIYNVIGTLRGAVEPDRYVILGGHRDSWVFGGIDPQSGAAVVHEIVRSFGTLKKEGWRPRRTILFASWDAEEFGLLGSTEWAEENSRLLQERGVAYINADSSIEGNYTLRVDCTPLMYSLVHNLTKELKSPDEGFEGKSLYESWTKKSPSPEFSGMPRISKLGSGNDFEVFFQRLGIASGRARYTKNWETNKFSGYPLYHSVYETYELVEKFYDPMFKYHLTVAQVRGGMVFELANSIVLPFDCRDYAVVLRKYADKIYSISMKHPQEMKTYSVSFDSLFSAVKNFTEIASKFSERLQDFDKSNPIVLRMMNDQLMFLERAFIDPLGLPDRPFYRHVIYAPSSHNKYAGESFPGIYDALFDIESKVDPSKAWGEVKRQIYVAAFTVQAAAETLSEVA

Consider `O=C(O)CC[C@H](NC(=O)N[C@@H](CCCCNC(=O)Nc1cccc(-c2cn(CCOCCOCCOCCC(=O)N[C@@H](CCCCNC(=S)Nc3cc(CN4CCOCCOCCN(Cc5cccc(C(=O)O)n5)CCOCCOCC4)nc(C(=O)O)c3)C(=O)NCCOCCOCCOCCOCCOCCOCCOCCOCCC(=O)N[C@@H](CCCCNC(=O)CCCc3ccc(I)cc3)C(=O)O)nn2)c1)C(=O)O)C(=O)O` [RPS-074, (((S)-1-Carboxy-5-(3-(3-(1-((14S,45S)-45-carboxy-14-(4-(3-(2-carboxy-6-((16-((6-carboxypyridin-2-yl)methyl)-1,4,10,13-tetraoxa-7,16-diazacyclooctadecan-7-yl)methyl)pyridin-4-yl)thioureido)butyl)-54-(4-iodophenyl)-12,15,43,51-tetraoxo-3,6,9,19,22,25,28,31,34,37,40-undecaoxa-13,16,44,50-tetraazatetrapentacontyl)-1H-1,2,3-triazol-4-yl)phenyl)ureido)pentyl)carbamoyl)-L-glutamic acid], for which half-maximal inhibition in data set [1] (IC50) was put at 12 ± 3.4 nM.

Turning to `O=C(O)CC[C@H](NC(=O)N[C@@H](CCCCNC(=O)Nc1cccc(-c2cn(CCOCCOCCOCCOCCOCCOCCC(=O)N[C@@H](CCCCNC(=S)Nc3cc(CN4CCOCCOCCN(Cc5cccc(C(=O)O)n5)CCOCCOCC4)nc(C(=O)O)c3)C(=O)N[C@@H](CCCCNC(=O)Cc3ccc(I)cc3)C(=O)O)nn2)c1)C(=O)O)C(=O)O` [macropa-RPS-070, (((S)-1-Carboxy-5-(3-(3-(1-((23S,26S)-26-carboxy-23-(4-(3-(2-carboxy-6-((16-((6-carboxypyridin-2-yl)methyl)-1,4,10,13-tetraoxa-7,16-diazacyclooctadecan-7-yl)methyl)pyridin-4-yl)thioureido)butyl)-33-(4-iodophenyl)-21,24,32-trioxo-3,6,9,12,15,18-hexaoxa-22,25,31-triazatritriacontyl)-1H-1,2,3-triazol-4-yl)phenyl)ureido)pentyl)carbamoyl)-L-glutamic acid], the “Retention of 225Ac in vivo” value in data set [2] is reported as “can stably retain ^225Ac in vivo over several days”.

Turning to `O=C(O)CCC(NC(=O)NC(CCCCNC(=O)Nc1cccc(-c2cnnn2CC(=O)NC(CCCCNC(=S)Nc2ccc(CC3CN(CC(=O)O)CCN(CC(=O)O)CCN(CC(=O)O)CCN3CC(=O)O)cc2)C(=O)NC(CCCCNC(=O)Cc2ccc(I)cc2)C(=O)O)c1)C(=O)O)C(=O)O` (stereo not shown) [^177Lu-RPS-068, metal not drawn], the “Tumor uptake (in words)” value in data set [3] (4-96 h p.i.) was “high and remained high”. In data set [3] (4 h p.i.), the “Blood activity (in words)” value is listed as “highest blood activity” and the Tumor uptake is listed as 21.8±2.8 % ID/g. In data set [3] (24 h p.i.), this molecule showed a Kidney uptake of 87.3±6.7 % ID/g. Besides, in data set [3] (96 h p.i.), the Tumor uptake came to 14.9±1.5 % ID/g and the Tumor-to-kidney ratio came to 1.56±0.23. The “Dose integral in the tumor relative to 177Lu-PSMA-617” value in data set [4] is recorded as “nearly four times higher”.

In the case of “^99mTc-((7S,12S,16S)-1-(1-(carboxymethyl)-1H-imidazol-2-yl)-2-((1-(carboxymethyl)-1H-imidazol-2-yl)methyl)-9,14-dioxo-2,8,13,15-tetraazaoctadecane-7,12,16,18-tetracarboxylic acid technetium tricarbonyl complex) [^99mTc-MIP-1427]”, the Kd in data set [5] is 0.64 ± 0.46 nM.
